US11415579B2, “Assay for measuring a rate of reaction between a target and a ligand candidate” (Imperial College Innovations Ltd., priority 2016, dated 2022)

Assays:
Cdk2[C177A, F80C, K278C] = molecular target: T1, Cdk2[C177A, F80C, K278C] (Homo sapiens, UniProt P24941, C177A/F80C/K278C); experiment: Kinetic thiol consumption assay with mutant Cdk2 as model thiol; format: binding; design: unit not given here; conditions: 500 μM ligand, 5 μM thiol, phosphate buffer pH 8
T1 construct: poly-histidine; made in house; host or cells: E. coli
Method in brief: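 First-order rate constants were derived by exponential-decay fitting of DMSO/thiol-normalized fluorescence (380/470 nm) over time at room temperature. Thiol was 5 μM E. coli-expressed His-tagged Cdk2 mutant C177A/F80C/K278C in degassed pH 8 phosphate buffer containing 2% v/v TCEP beads.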

Cdk2(T182C) (C177A) = molecular target: T2, Cdk2(T182C) (C177A) (Homo sapiens, UniProt P24941, C177A/T182C); experiment: Kinetic thiol consumption assay with Cdk2 mutant T182C; format: binding; design: key to Rate enhancement, Cdk2 T182C: rate constant with Cdk2 ÷ rate constant with model thiol (fold)
T2 construct: poly-histidine; made in house; host or cells: E. coli
Method in brief: (§1)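 Read-out is fluorescence at 380/470 nm, taken after 1 h at room temperature and normalized to a DMSO/thiol-only control over time. Thiol (5 μM Cdk2 mutant or model thiol) was in degassed pH 8 phosphate buffer with 2% v/v TCEP beads. Acrylamide rate constants for Cdk2 were divided by those with model thiol.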

[1] = molecular target: T3, human cyclin-dependent kinase 2 (Cdk2) (Homo sapiens, UniProt P24941); experiment: Kinetic thiol consumption assay with wild type Cdk2 (C177); format: binding; design: key to Rate enhancement, Cdk2 WT: k(Cdk2) divided by k(model thiol); Rate constant with Cdk2 (k(Cdk2)): unit not given here
T3 construct: poly-histidine; made in house; host or cells: E. coli
Method in brief: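 Rate enhancement: first-order decay constant with Cdk2 over that with a model thiol. Thiols (5 μM, degassed phosphate buffer pH 8, immobilized TCEP) were incubated with acrylamides at room temperature, and thiol consumption followed by fluorescence at 380/470 nm, normalized to DMSO control. Cdk2 was His-tagged, E. coli-expressed, with one surface cysteine (C177).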

Cdk2(S276C) (C177A) = molecular target: T4, Cdk2(S276C) (C177A) (Homo sapiens, UniProt P24941, C177A/S276C); experiment: Kinetic thiol consumption assay with Cdk2 mutant S276C; format: binding; design: key to Rate enhancement, Cdk2 S276C: rate constant with Cdk2 ÷ rate constant with model thiol (fold)
T4 construct: poly-histidine; made in house; host or cells: E. coli
Method in brief: as §1

[2] = system: Cdk2 constructs (except Cdk(WT)); experiment: Average of several thiols (Cdk2 constructs except WT) as model thiol; format: binding, human; conditions: average over all Cdk2 constructs except Cdk2(WT)
Method: In Example 1 rate enhancements were calculated relative to the control thiol, glutathione.
As an example, the rate constant for ligand candidate EL1157 in reaction with all the Cdk2 constructs (except Cdk(WT)) were averaged and then compared to the rate constant with Cdk2(WT).

Cdk2(H71C) (C177A) = molecular target: T5, Cdk2(H71C) (C177A) (Homo sapiens, UniProt P24941, C177A/H71C); experiment: Kinetic thiol consumption assay with Cdk2 mutant H71C; format: binding; design: key to Rate enhancement, Cdk2 H71C: rate constant with Cdk2 ÷ rate constant with model thiol (fold)
T5 construct: poly-histidine; made in house; host or cells: E. coli
Method in brief: as §1

[3] = Kinetic thiol consumption assay with model thiol glutathione; format: physicochemical; design: Rate constant with glutathione (k(GSH)): unit not given here
Method in brief: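 GSH 5 μM, degassed phosphate buffer pH 8, TCEP beads 2% v/v; acrylamide added; RT, 1 h; fluorescence ex/em 380/470 nm; normalized to DMSO/thiol control; k from first-order exponential decay fit.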

Cdk2(N272C) (C177A) = molecular target: T6, Cdk2(N272C) (C177A) (Homo sapiens, UniProt P24941, C177A/N272C); experiment: Kinetic thiol consumption assay with Cdk2 mutant N272C; format: binding; design: key to Rate enhancement, Cdk2 N272: rate constant with Cdk2 ÷ rate constant with model thiol (fold)
T6 construct: poly-histidine; made in house; host or cells: E. coli
Method in brief: as §1

Cdk2(S181C) (C177A) = molecular target: T7, Cdk2(S181C) (C177A) (Homo sapiens, UniProt P24941, C177A/S181C); experiment: Kinetic thiol consumption assay with Cdk2 mutant S181C; format: binding; design: key to Rate enhancement, Cdk2 S181C: rate constant with Cdk2 ÷ rate constant with model thiol (fold)
T7 construct: poly-histidine; made in house; host or cells: E. coli
Method in brief: as §1

Cdk2(R122C) (C177A) = molecular target: T8, Cdk2(R122C) (C177A) (Homo sapiens, UniProt P24941, C177A/R122C); experiment: Kinetic thiol consumption assay with Cdk2 mutant R122C; format: binding; design: key to Rate enhancement, Cdk2 R122C: rate constant with Cdk2 ÷ rate constant with model thiol (fold)
T8 construct: poly-histidine; made in house; host or cells: E. coli
Method in brief: as §1

Cdk2(C177A, F80C) = molecular target: T9, Cdk2(C177A, F80C) (Homo sapiens, UniProt P24941, C177A/F80C); experiment: Kinetic thiol consumption assay with Cdk2 mutant F80C, incl. kobs versus concentration (Kd, k2); format: binding; design: key to Rate enhancement, Cdk2 F80C: Cdk2 rate constant divided by model-thiol rate constant
T9 construct: poly-histidine; made in house; host or cells: E. coli
Method in brief: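 His-tagged Cdk2(C177A/F80C) from E. coli or model thiol, 5 μM in degassed phosphate buffer pH 8 with TCEP beads, reacted with acrylamide ligands; fluorescence (ex/em 380/470 nm) normalized to DMSO control and fitted to first-order decay for kobs. Kd and k2 obtained from hyperbolic fit of kobs versus ligand concentration.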

[4] = 500 μM ligand, 5 μM thiol, phosphate buffer pH 8

C=CC(=O)N1CCN(C(=O)OC(C)(C)C)c2ccccc21 [EL-1157]
Rate constant with Cdk2[C177A, F80C, K278C] (k(Cdk2_mut)) (Cdk2[C177A, F80C, K278C]): 0.3046
Rate constant k(Cdk2(T182C)) (Cdk2(T182C) (C177A)): 0.1572 h⁻¹
Rate enhancement, Cdk2 T182C (Cdk2(T182C) (C177A); Cdk2 T182C, additional mutation C177A): 2.337
Rate constant with Cdk2 T182C (Cdk2(T182C) (C177A); Protein: Cdk2, cysteine position T182C, additional mutation C177A, in h^-1): 0.1572
Rate constant k(Cdk2(WT)) [1]: 0.2006 h⁻¹
Rate constant with Cdk2 (k(Cdk2)) [1, 4]: 0.2006
Rate enhancement, Cdk2 WT ([1]; Cdk2 WT, no additional mutations): 2.982
Rate constant with Cdk2 WT ([1]; Protein: Cdk2, cysteine position WT, in h^-1): 0.2006
k(Cdk2(WT))/k(average) ([1]; average of multiple Cdk2 mutants as control thiol): 4.46
k(Cdk2)/k(Cdk2_mut) rate enhancement ([1]; model thiol Cdk2[C177A, F80C, K278C]): 0.6586
k(Cdk2)/k(GSH) rate enhancement ([1]; model thiol glutathione): 1.592
Rate constant k(Cdk2(S276C)) (Cdk2(S276C) (C177A)): 0.0704 h⁻¹
Rate enhancement, Cdk2 S276C (Cdk2(S276C) (C177A); Cdk2 S276C, additional mutation C177A): 1.046
Rate constant with Cdk2 S276C (Cdk2(S276C) (C177A); Protein: Cdk2, cysteine position S276C, additional mutation C177A, in h^-1): 0.07038
Rate constant k(average) [2]: 0.0449 h⁻¹
Rate constant k(Cdk2(H71C)) (Cdk2(H71C) (C177A)): 0.0261 h⁻¹
Rate enhancement, Cdk2 H71C (Cdk2(H71C) (C177A); Cdk2 H71C, additional mutation C177A): 0.3892
Rate constant with Cdk2 H71C (Cdk2(H71C) (C177A); Protein: Cdk2, cysteine position H71C, additional mutation C177A, in h^-1): 0.02618
Rate constant with glutathione (k(GSH)) [3, 4]: 0.126
Rate constant with Glutathione ([3]; Protein: Glutathione, cysteine position NA, in h-1): 0.06726
Rate constant k(Cdk2(N272C)) (Cdk2(N272C) (C177A)): 0.0029 h⁻¹
Rate enhancement, Cdk2 N272 (Cdk2(N272C) (C177A); Cdk2 N272, additional mutation C177A): 0.04255
Rate constant with Cdk2 N272C (Cdk2(N272C) (C177A); Protein: Cdk2, cysteine position N272C, additional mutation C177A, in h^-1): 0.002862
Rate constant k(Cdk2(S181C)) (Cdk2(S181C) (C177A)): 0.0138 h⁻¹
Rate enhancement, Cdk2 S181C (Cdk2(S181C) (C177A); Cdk2 S181C, additional mutation C177A): 0.2053
Rate constant with Cdk2 S181C (Cdk2(S181C) (C177A); Protein: Cdk2, cysteine position S181C, additional mutation C177A, in h^-1): 0.01381
Rate constant k(Cdk2(R122C)) (Cdk2(R122C) (C177A)): 0.0048 h⁻¹
Rate enhancement, Cdk2 R122C (Cdk2(R122C) (C177A); Cdk2 R122C, additional mutation C177A): 0.07164
Rate constant with Cdk2 R122C (Cdk2(R122C) (C177A); Protein: Cdk2, cysteine position R122C, additional mutation C177A, in h-1): 0.004819
Rate constant k(Cdk2(F80C)) (Cdk2(C177A, F80C)): 0.0393 h⁻¹
Rate enhancement, Cdk2 F80C (Cdk2(C177A, F80C); Cdk2 F80C, additional mutation C177A): 0.5847
Rate constant with Cdk2 F80C (Cdk2(C177A, F80C); Protein: Cdk2, cysteine position F80C, additional mutation C177A, in h^-1): 0.03933
